According to patent US12529101B2, “Methods and reagents for characterizing genomic editing, clonal expansion, and associated applications” (TwinStrand Biosciences, Inc., priority 2018, dated 2026):

What was measured:
human HRAS transgene = assay: Duplex Sequencing detection of clonally expanded cancer driver mutations after urethane dosing; type: in vivo, mouse
From the text: (§1) In this example, the impact of urethane is examined in different mouse tissue types (lung, spleen, blood) in an FDA-accepted cancer-predisposed mouse model: Tg.rasH2 (Saitoh et al. Oncogene 1990. PMID 2202951). This mouse contains ˜3 tandem copies of human HRAS with an activating enhancer mutation to boost expression on one hemizygous allele. These mice are predisposed to splenic angiosarcomas and lung adenocarcinomas, and are routinely used for 6 month carcinogenicity studies to substitute for 2 year wild-type animal studies. Tumors found in the mice have usually acquired activating mutations in one copy of the human HRAS protooncogene. Thus, the human HRAS transgene serves a model target cancer driver gene in these animals. Sequence analysis and mutation detection was performed for 4 native mouse genes (Rho, Hp, Ctnnb1, Polr1c), along with the native mouse Hras, Kras, Nras and human HRAS transgene.
(§2) In this example, Tg.rasH2 mice (n=5/group) were dosed with vehicle or a model mutation-inducing agent (e.g., a carcinogenic dose of urethane) (day 1,3,5) and sacrificed on day 29 for mutation detection by Duplex Sequencing in target tissues (lung, spleen) and whole blood. Target endogenous genes (Rho, Hp, Ctnnb1, Polr1c) and the native mouse Hras and human HRAS (trans)genes were also sequenced.

Tg.rasH2 mice = assay: Duplex Sequencing of mutation induction and mutation spectrum in lung, spleen and blood; type: in vivo, mouse
From the text: as §1, §2

## CCOC(N)=O [urethane]
Human HRAS transgene; Tg.rasH2 mice, day 29, spleen, one at the same position, one on an adjoining base pair
  treated spleen samples with mutations in human HRAS codon 61: two
Human HRAS transgene; Tg.rasH2 mice, n=5/group, day 29, lung
  urethane treated lung samples with the human HRAS codon 61 T>A mutation: 4/5
Human HRAS transgene; Tg.rasH2 mice, n=5/group, spleen
  urethane-treated splenic samples with T>A transversion at the human oncogenic HRAS codon 61 hotspot: 1/5
Human HRAS transgene; by calculation, 29 days, assuming no cell death
  doubling time of the selected clone cells: ~1.8 days
Human HRAS transgene; urethane treated lung samples, Tg.rasH2 mice, day 29, T→A transversions in the context CTG
  variant allele frequencies of the codon 61 mutation in exon 3 of human HRAS: 0.1%-1.8
Human HRAS transgene; within the 29 days of the study
  cells encompassed by the highest allele fraction clone: more than 90,000 cells
Tg.rasH2 mice; compared with spleen
  mutation induction in peripheral blood: closely mirrored that seen in the spleen
Tg.rasH2 mice; distinguishable from the vehicle control
  triplet mutation spectrum: strong propensity for T→A and T→C mutations within the context of “NTG”
Tg.rasH2 mice; lung, spleen, blood
  tissue-specific variations in the extent of mutation induction: lung being observed to be more mutation prone than spleen and blood
